# Values quoted from earlier work in PMC2967214 (Journal of the American Chemical Society, 2010).
# Assays:
# [1] = 25°C, 20 MHz; cited from earlier work
# [2] = cited from earlier work
Compound,r1 relaxivity [1] [mM⁻¹ s⁻¹],thermodynamic and kinetic stability of Gd3+ complex [2]
Gadomer 17,16.5,–
O=C(O)CN1CCN(CC(=O)O)CCN(CC(=O)O)CCN(CC(=O)O)CC1 [DOTA],–,high thermodynamic and kinetic stability
